Laboratory results published in US20090291941A1, “Tyrosine Kinase Inhibitors” (priority 2005, published 2009).

Target: T1, human c-Met (Homo sapiens, UniProt P08581)
T1 construct: Recombinant GST-tagged cytosolic domains of human c-Met; 6xHis; made in house; host or cells: baculovirus system; Sf9 or Sf21 insect cells
Experiment: In vitro c-Met kinase assay (homogeneous time-resolved fluorescence tyrosine kinase assay)
Assay type: biochemical
Conditions: recombinant GST-tagged cytosolic domain of c-Met, 0.2 nM enzyme, 50 μM MgATP, HTRF readout
Description: Recombinant GST-tagged cytosolic domains of human c-Met and other receptor tyrosine kinases including mouse c-Met, human Ron, KDR, IGFR, EGFR, FGFR, Mer, TrkA and Tie2 are used to determine whether the compounds of the instant invention modulate the enzymatic activities of these kinases.
Soluble recombinant GST-tagged cytosolic domains of c-Met and other receptor tyrosine kinases are expressed in a baculovirus system (Pharmingen) according to a protocol recommended by the manufacturer. The c-DNA encoding each cytosolic domain is subcloned into a baculovirus expression vector (pGcGHLT-A, B or C, Pharmingen) containing an in frame 6× histidine tag and a GST tag. […] The protein concentrations of the fusion proteins are determined using Coomassie Plus Protein Assay (Pierce) with BSA as standard.
The kinase activities of c-Met and other kinases are measured using a modified version of the homogeneous time-resolved tyrosine kinase assay described by Park et al. (1999, Anal. Biochem. 269:94-104).
The procedure for determining the potency of a compound to inhibit c-Met kinase comprises the following steps: • 1. […] Read HTRF signals on a Victor reader (PerkinElmer) in HTRF mode after 60 min. • 6. IC50 is determined by fitting the observed relationship between compound concentration and HTRF signal with a 4-parameter logistic equation. […]

T1 sequence (P08581 956-1390 limits assumed): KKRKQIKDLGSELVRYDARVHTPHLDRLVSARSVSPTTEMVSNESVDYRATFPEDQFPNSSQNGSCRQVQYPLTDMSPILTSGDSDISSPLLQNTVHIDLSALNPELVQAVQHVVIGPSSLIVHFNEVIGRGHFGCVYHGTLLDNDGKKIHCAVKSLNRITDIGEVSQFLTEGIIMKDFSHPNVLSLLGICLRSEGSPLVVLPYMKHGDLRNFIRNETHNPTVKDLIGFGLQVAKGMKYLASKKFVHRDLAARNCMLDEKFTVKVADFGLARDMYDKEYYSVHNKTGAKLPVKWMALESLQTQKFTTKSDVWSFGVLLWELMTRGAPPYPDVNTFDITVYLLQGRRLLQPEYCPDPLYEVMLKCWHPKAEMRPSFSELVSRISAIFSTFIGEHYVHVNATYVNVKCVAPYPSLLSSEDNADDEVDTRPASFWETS

| IC50 [µM] | Structure (SMILES) |
| --- | --- |
| < 50 | Nc1ccc2c(c1)C(=O)Nc1cc(-c3ccccc3)cnc1C=C2 [Compound 14, 8-amino-3-phenylpyrido[3,2-c][2]benzazocin-6(5H)-one] |
| < 50 | Nc1ccc2c(c1)NC(=O)c1cc(-c3ccccc3)cnc1C=C2 [Compound 15, 8-amino-3-phenylpyrido[3,2-c][1]benzazocin-5(6H)-one] |
